From patent US9878054B2, “Polypeptide and lipophilic moiety conjugate compositions, formulations, and uses related thereto” (Tufts Medical Center, Inc., priority 2012, dated 2018)
Where a SMILES comes first, the peptide text is derived from it. The star is where a group is joined. Palmitoyl = CCCCCCCCCCCCCCCC(=O)*

Legend:
[1] = system: human whole blood (red blood cell lysis); assay: Hemolysis of human whole blood; assay type: cell-based; conditions: up to 3.3 mg/mL in 5% dextrose, blood mixed 2:1; 40 min at 37° C.
Procedure: Fresh human whole blood (anticoagulated with 10 U heparin/mL) was mixed 2:1 with the various indicated dilutions of micelles of PZ-128 in 5% dextrose, incubated for 40 min at 37° C., and red blood cell lysis quantified by hemoglobin (Hb) release into the supernatant.
The PZ-128 micelle particles were solubilized in 5% dextrose/water at 10 mg/mL concentration and serially diluted with additional 5% dextrose/water to make stock solutions of 0.75, 1.5, 2.25, 3.0, 3.3 and 4.0 mg/mL PZ-128 in 5% dextrose water. Fresh human whole blood (anticoagulated with 10 U heparin/mL) was mixed 2:1 with the various dilutions of PZ-128 in 5% dextrose, incubated for 40 min at 37° C., and red blood cell lysis quantified by hemoglobin (Hb) release into the supernatant. […] The final pH of the PZ-128 micelles in 5% dextrose/water ranged from 6.75 to 7.13 at 1.25-10 mg/mL at room temperature.

[2] = system: PAR4; assay: Baboon ex vivo platelet aggregation, AYPGKF (PAR4); assay type: in vivo; conditions: any dose, any time point
Procedure: (§1) A-C, Male baboons (10-12 kg) were administered 1, 3 or 6 mg/kg PZ-128, or 5% dextrose USP vehicle by iv infusion and blood collected into 100 μg/ml PPACK anticoagulant at 0, 1, 2, 6, or 24 h time points. Light transmission platelet aggregometry was performed with platelet rich plasma with the indicated agonists (SFLLRN for PAR1, AYPGKF for PAR4 and ADP for P2Y12 and P2Y1). Data are reported as mean±SD (n=3-7) relative to time 0 controls (0%) and were analyzed by repeated measures one-way ANOVA with Bonferroni post-test correction; *P<0.05, **P<0.01 relative to time 0. Global P values were >0.05 for 1 mg/kg, 0.004 for 3 mg/kg, <0.0001 for 6 mg/kg. D, Pharmacokinetics of 3 and 6 mg/kg 45-min iv infusions of PZ-128 in male baboons. Plasma PZ-128 levels were measured by LC/MS/MS at 9 sequential time points: baseline, 15 min, 30 min, 1 h, 2 h, 4 h, 8 h, 24 h and 48 h after the start of infusion. Open symbols indicated plasma concentrations that were under the measurement threshold (5 ng/ml).
(§2) The anti-platelet effects of PZ-128 micelles were next examined in baboons at various time points after receiving different doses of intravenous infusions. […]
(§3) Non-terminal thrombosis and platelet aggregation studies were performed on 12 healthy male baboons (Papio anubis) weighing 9-12 kg at the Oregon National Primate Research Center (ONPRC). […] Platelet counts and hematocrit were measured immediately. […]

[3] = Bleeding time, platelet counts and hematocrit in baboons; assay type: in vivo; conditions: baboon; all doses tested (1-6 mg/kg)
Procedure: Whether PZ-128 had any adverse effects on hemostasis or coagulation indices in baboons and monkeys was evaluated. At all doses tested (1-6 mg/kg), PZ-128 micelles had no effect on bleeding time, platelet counts or hematocrit in baboons (Table 2).
Non-terminal thrombosis and platelet aggregation studies were performed on 12 healthy male baboons (Papio anubis) weighing 9-12 kg at the Oregon National Primate Research Center (ONPRC). […] Whole blood (10 ml) was collected into PPACK at a final concentration of 100 μg/ml just prior to infusion (baseline) and 15 min to 24 h after the PZ-128 micelle infusion was terminated. Platelet counts and hematocrit were measured immediately. PRP was prepared from whole blood and platelet aggregation performed as described above. Bleeding time (BT) measurements were performed on the shaved volar surface of the forearm using the standard template method.

[4] = Pharmacokinetics of PZ-128 in baboon plasma (LC/MS/MS); assay type: in vivo
Procedure: as §1
The maximal plasma concentration of PZ-128 was 14 μmol/L at the 6 mg/kg dose and 5.6 μmol/L for the 3 mg/kg dose. […] The pharmacokinetic and anti-platelet pharmacodynamic properties of PZ-128 micelles indicate that this lipopeptide reaches maximal activity during and immediately after intravenous infusion and is completely eliminated by the next day.
Various doses of PZ-128 micelles were infused intravenously for 45 min to baboons. At sequential time points, whole blood was drawn into 3.2% citrate buffer and immediately centrifuged at 3000 rpm for 10 min. Platelet-poor plasma (PPP) samples were harvested and stored at −80° C. PZ-128 drug levels in PPP samples were determined was using an API 4000 LC/MS/MS system (Agilux Laboratories, Worcester, Mass.).

[5] = system: human platelets (ADP); assay: Human platelet aggregation, ADP; assay type: cell-based; conditions: 20 μM ADP
Procedure: (§4) A, Depiction of the mechanism of action of the cell-penetrating PZ-128 pepducin compound targeting the third intracellular loop (red) of PAR1. B, The NMR structure of PZ-128 was determined by simulated annealing methods using 210 distance restraints and included restraints to the proximal 3 hydrocarbons of the lipid. […] D, PZ-128 inhibits PAR1-dependent platelet aggregation. Gel filtered human platelets were treated with various concentrations of PZ-128 and then challenged with the PAR1 agonist SFLLRN (2.5 μM), 20 μM ADP, 200 μM AYPGKF or 1 mg/ml Ristocetin. E, Human platelets were treated with 3 μM PZ-128, 3 μM RWJ-56110, or 5% dextrose vehicle before the addition of various concentrations of thrombin (n=3-5).
(§5) PZ-128 also markedly right-shifted thrombin-induced aggregation by 5-fold. By comparison, the small molecule RWJ-56110 which antagonizes PAR1 at the extracellular ligand-binding site gave a 2-fold right shift in the thrombin activation curve of human platelets.
(§6) Whole blood from healthy donors was collected into a 30 ml syringe containing sodium citrate (0.4% vol/vol final). Platelets were isolated from platelet rich plasma (PRP) using Sepharose 2B columns in modified PIPES buffer.

[6] = system: human platelets (Ristocetin); assay: Human platelet aggregation, ristocetin; assay type: cell-based; conditions: 1 mg/ml Ristocetin
Procedure: as §4, §5, §6

[7] = system: P2Y12 and P2Y1; assay: Baboon ex vivo platelet aggregation, ADP; assay type: in vivo; conditions: any dose, any time point
Procedure: as §1, §2, §3

Effect on bleeding time, platelet counts or hematocrit [3]: no effect
Plasma half life ([4]; 3 and 6 mg/kg iv infusion): 50 to 80 min
Plasma level at late time points ([4]; 24-48 h, measurement threshold 5 ng/ml): not detectable
Clearance from plasma ([4]; by 8 h): nearly completely cleared
half-life ([4]; male, plasma, iv, 3 and 6 mg/kg iv infusion): 50 to 81 min
Structure (SMILES): CCCCCCCCCCCCCCCC(=O)N[C@@H](CCCCN)C(=O)N[C@@H](CCCCN)C(=O)N[C@@H](CO)C(=O)N[C@@H](CCCNC(=N)N)C(=O)N[C@@H](C)C(=O)N[C@@H](CC(C)C)C(=O)N[C@@H](Cc1ccccc1)C(N)=O [PZ-128, palmitate-KKSRALF-NH2] (Palmitoyl-KKSRALF-NH2)
Hemolysis of human whole blood (Hb release) [1]: no significant hemolysis
Inhibition of AYPGKF (PAR4) response ex vivo [2]: no inhibition
Inhibitory activity against ADP aggregation [5]: no inhibitory activity
Inhibitory activity against ristocetin aggregation [6]: no inhibitory activity
Inhibition of ADP response ex vivo [7]: no inhibition
